According to PubChem BioAssay (NCI):
“And” between values parts separate entries of the source, which are not always exact repeats. Identical values can stand only once.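 Test compounds were applied to cells in 96-well plates for 48 hours at 5 doses. Here, GI50 denotes the concentration required for 50% inhibition of growth. TGI is the concentration that stops growth completely.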 *1 amine or outer side, *2 acyl side, *3 side chain or, on linkers, in order; H or OH if unused. Where a SMILES comes first, the peptide text is derived from it. Bridges are numbered along the chain shown (N, C = ends). [ ]: non-standard residue; d: D form. ξ: configuration not given here. X4 = CCC(C)C(N[*:1])C(O)CC(=O)O[C@H](C(=O)C(C)C(=O)[*:2])C(C)C; NMeY = CN[C@@H](Cc1ccc(O)cc1)C(=O)O; ξNMeL = CNC(CC(C)C)C(=O)O; ξT = CC(O)C(N)C(=O)O

What was measured:
Test in all cases: NCI tumour cell line growth inhibition, 48 h
BT-549 breast = tested on: BT-549 breast
UO-31 renal = tested on: UO-31 renal
COLO 205 colon = tested on: COLO 205 colon
NCI-H23 lung = tested on: NCI-H23 lung
HT29 colon = tested on: HT29 colon
RPMI-8226 leukemia = tested on: RPMI-8226 leukemia
DU-145 prostate = tested on: DU-145 prostate
HOP-62 NSCLC = tested on: HOP-62 NSCLC

Compound | TGI (BT-549 breast) [µM] | TGI (UO-31 renal) | TGI (COLO 205 colon) [µM] | TGI (NCI-H23 lung) [µM] | TGI (HT29 colon) | TGI (RPMI-8226 leukemia) [µM] | TGI (DU-145 prostate) [µM] | TGI (HOP-62 NSCLC) [µM] | GI50 (UO-31 renal) [µM] | GI50 (COLO 205 colon) [µM] | GI50 (NCI-H23 lung) [µM] | GI50 (HT29 colon) [µM] | GI50 (RPMI-8226 leukemia) [µM] | GI50 (DU-145 prostate) [µM] | GI50 (HOP-62 NSCLC) [µM] | GI50 (BT-549 breast) [µM]
O=C(c1ccco1)N(C(=S)OCc1ccccn1)c1ccccc1 | > 100 | > 100 µM | > 100 | > 100 | > 100 µM | > 100 | > 100 | > 100 |  |  |  |  |  |  |  | 
COc1cccc(-c2nc3sccn3c2-c2ccnc(NCCNC(=O)Nc3cccc(C(F)(F)F)c3)n2)c1 |  | 24.8 µM | 19.2 | 76.9 | 14 µM | 5.11 | 95.5 | 42.4 | 2.88 | 5.37 | 3.42 | 3.33 | 1.92 | 5.13 | 6.71 | 
CC[N+](CC)=c1ccc2nc3c(cc(N)c4ccccc43)oc-2c1 | 2.41 |  |  | 0.358 |  | 0.399 |  |  |  |  | 0.125 |  | 0.0412 |  |  | 1.11
CCOC(=O)C(O)(NC(C)=O)C(F)(F)F (stereo not given) | > 100 | > 100 µM | > 100 | > 100 | > 100 µM | > 100 | > 100 | > 100 |  |  |  |  |  |  |  | 
COc1cc(C2C3=C(COC3=O)OC(C)(C)Oc3cc4c(cc32)OCO4)cc(OC)c1OC (stereo not given) | > 100 | 5.86 µM | 0.552 | > 100 | 0.662 µM | > 87.3 |  | > 100 |  |  |  |  |  |  |  | 
COC(=O)c1cncc2c1CC1C3(C(=O)OC)C=NC(C4C(CO)=CCC43)C21C (stereo not given) |  | > 100 µM | > 100 | > 100 | > 100 µM |  | > 100 | > 100 |  |  |  |  |  |  |  | 
N#Cc1c2c(c(N3CCOCC3)n3c1nc1ccccc13)CCCC2 | > 100 | 35.4 µM | 37.5 | 47.3 | 38.6 µM |  | 37.2 |  |  |  |  |  |  |  |  | 
Cc1cc(S(=O)(=O)Nc2nnc3cc(C(F)(F)F)cc(C)n23)c(S)cc1Cl | > 100 | > 100 µM | > 100 | > 100 | > 100 µM | > 100 | > 100 | > 100 |  |  |  |  |  |  |  | 
CCCCN(c1ccccc1)c1ncnc2c1cnn2C | 62.1 | > 100 µM | > 100 | > 100 | > 100 µM | 48 | > 100 | > 100 |  |  |  |  |  |  |  | 
O=C(O)c1ccc(Nc2nc3cc(C(F)(F)F)ccc3nc2C(=O)O)cc1 | > 100 | > 100 µM | > 100 | > 100 | > 100 µM |  | > 100 | > 100 |  |  |  |  |  |  |  | 
Cc1ccc2c(c1)OC1Nc3ccccc3C1=C2O (stereo not given) | 66.1 | 61.6 µM | 29.2 | 74.6 | > 100 µM | > 100 | > 100 | > 100 |  |  |  |  |  |  |  | 
O=C1C=CC(=O)c2ncccc21 | 15.5 | 9.03 µM | 7.64 | 23.6 | 16.7 µM | > 22 | 20.4 | 28.6 |  |  |  |  |  |  |  | 
CCCCCCCCCCCCCCCCCCOCC(O)COP(=O)(O)OCC1OC(n2cc(F)c(=O)[nH]c2=O)CC1O (stereo not given) | 27.3 | 19.6 µM | 21.9 | 16.9 | 23.6 µM | 22.5 | 23.5 | 4.88 |  |  |  |  |  |  |  | 
COC(=O)[C@@H]1N2C(=S)N(c3ccccc3)C(=O)[C@H]2SC1(C)C | > 100 | > 100 µM | > 100 | > 100 | > 100 µM | > 100 | > 100 | > 100 |  |  |  |  |  |  |  | 
Cc1[nH]c(-c2ccccc2)c(-c2ccc(Cl)cc2)c1C(=O)ONC(=O)c1ccccc1 | 9.94 | 2.89 µM | 22.9 | 15.3 | 22.9 µM | > 48.4 | 3.76 | 5.45 |  |  |  |  |  |  |  | 
O=C(O)c1ccccc1/C=N\NC1=NCCCCN1 | > 100 | > 100 µM | > 100 | > 100 | > 100 µM | > 100 | > 100 | > 100 |  |  |  |  |  |  |  | 
CCOP(=O)(OCC)C(Nc1ccc(F)cc1)c1cccc([N+](=O)[O-])c1 (stereo not given) | > 100 | > 100 µM | > 100 | > 100 | > 100 µM | > 100 | > 100 | > 100 |  |  |  |  |  |  |  | 
COC1/C=C/C(C)C(C(C)C(OC)C(C)CCC(=O)C(C)C(CCC(=O)O)OC)OC(=O)/C=C/C=C(\C)CC(OC)CC2=CC(=O)O[C@@H](C(C)C(OC)CC(OC)/C=C/C(C)C(OC)C1)[C@H]2O (stereo not given in full) | 2.85 |  | > 5 | > 5 | > 5 µM | > 3.94 | > 5 | > 5 |  |  |  |  |  |  |  | 
Nc1nc2c(ncn2C2C=CC(CO)O2)c(=O)[nH]1 (stereo not given) | > 100 | > 100 µM | > 100 | > 100 | > 100 µM | > 100 | > 100 | > 100 |  |  |  |  |  |  |  | 

Compound | TGI (BT-549 breast) [µM] | TGI (UO-31 renal) | TGI (COLO 205 colon) [µM] | TGI (NCI-H23 lung) [µM] | TGI (HT29 colon) | TGI (RPMI-8226 leukemia) [µM] | TGI (DU-145 prostate) [µM] | TGI (HOP-62 NSCLC) [µM] | GI50 (UO-31 renal) [µM] | GI50 (COLO 205 colon) [µM] | GI50 (NCI-H23 lung) [µM] | GI50 (HT29 colon) [µM] | GI50 (RPMI-8226 leukemia) [µM] | GI50 (DU-145 prostate) [µM] | GI50 (HOP-62 NSCLC) [µM] | GI50 (BT-549 breast) [µM]
CSC1SCC2C(=O)N(C)C3(CC3C)C(=O)OCC(NC(=O)c3nc4ccccc4cc3O)C(=O)NC(C)C(=O)N(C)C1C(=O)N(C)C1(CC1C)C(=O)OCC(NC(=O)c1nc3ccccc3cc1O)C(=O)NC(C)C(=O)N2C (stereo not given) |  | 0.0093 µM | < 0.0001 | < 0.0001 | 4.21 µM | < 0.0001 | > 100 |  |  |  |  |  |  |  |  | 
CSC(=NC1=NC(C(F)(F)F)(C(F)(F)F)N=C(c2ccccc2)O1)SC | 82.4 | 89.2 µM | 46.5 | 65.5 | 61 µM |  | 45 | 59 |  |  |  |  |  |  |  | 
CSc1ncc2c(n1)-c1ccccc1OC2N1CCCC1 (stereo not given) | > 100 | > 100 µM | > 100 | > 100 | > 100 µM | > 100 | > 100 |  |  |  |  |  |  |  |  | 
CCOC(=O)c1sc2c(c1OC(=O)c1ccccc1)c(=O)n(-c1ccccc1)c(=S)n2-c1ccccc1 |  |  | > 100 | 48.9 | 38.1 µM | > 100 | > 100 | 54.4 |  |  |  |  |  |  |  | 
COc1cc(/C=C2/SC(c3ccccc3)N(c3cccc([N+](=O)[O-])c3)C2=O)cc(OC)c1OC (stereo not given) | > 100 | > 100 µM | > 100 | > 100 |  | > 100 | > 100 | > 100 |  |  |  |  |  |  |  | 
COc1cc2ccnc3c2c(c1O)N(C)C=C3 | 22.9 | 22.3 µM | > 63.1 | 37.5 |  | > 100 | > 62 | 46.4 |  |  |  |  |  |  |  | 
NC(=O)CC(Nc1ncc2c(n1)-c1ccccc1OC2)C(=O)O (stereo not given) |  | > 100 µM | > 100 | > 100 | > 100 µM | 82.5 | > 100 | > 100 |  |  |  |  |  |  |  | 
CC(C)n1c(=O)n(-c2ccccc2)n(C(C)(C)C)c1=O | > 100 | > 100 µM | > 100 | > 100 | > 100 µM |  |  | > 100 |  |  |  |  |  |  |  | 
NC(CCCCNC(=O)OCc1ccccc1)C(=O)NC(CCCCNC(=O)OCc1ccccc1)C(=O)ON1C(=O)CCC1=O (stereo not given) | > 100 | > 100 µM | > 100 | > 100 | > 100 µM | > 100 |  | > 100 |  |  |  |  |  |  |  | 
O=C(N=Nc1ccccc1Br)NNc1ccccc1Br | > 100 | > 100 µM |  | > 100 | > 100 µM | > 100 | > 100 | > 100 |  |  |  |  |  |  |  | 
COc1c/c(=C2/C=c3ccccc3=N2)[nH]/c1=C/c1[nH]c(C)cc1C |  |  | 1.26 |  |  | 1.95 | > 100 | 0.459 |  | 0.0659 |  |  | 0.0533 | 0.15 | 0.0458 | 
O=C(/C=C/c1ccc([N+](=O)[O-])cc1)c1nc2ccccc2[nH]1 | > 100 | > 100 µM | > 100 |  | > 100 µM | 33.3 | > 100 | > 100 |  |  |  |  |  |  |  | 
CCC(C)C1NC(=O)C(NC(=O)C(CC(C)C)N(C)C(=O)[C@@H]2CCCN2)C(C)OC(=O)[C@H](Cc2ccc(OC)cc2)N(C)C(=O)[C@@H]2CCCN2C(=O)[C@H](CC(C)C)NC(=O)C(C)C(=O)[C@H](C(C)C)OC(=O)CC1O (stereo not given in full) (H-P[ξNMeL][ξT][X4]LP[NMeY](Me); ester 3-C) | 0.0104 | 0.118 µM and 0.444 µM |  | 0.00218 | 0.0151 µM and 0.0127 µM |  |  | 0.00782 | 0.0253 |  |  |  |  |  |  | 
COC(=O)C1(C(=O)OC)N=C(C)OC1C(C)C (stereo not given) | > 100 | > 100 µM | > 100 | > 100 |  | > 100 | > 100 | > 100 |  |  |  |  |  |  |  | 
COc1ccc(NC2Oc3cc4c(cc3C(c3cc(OC)c(O)c(OC)c3)C2C)OCO4)cc1 (stereo not given) | > 100 | 31.3 µM | 39 | > 100 | > 100 µM | 12.9 | > 100 |  |  |  |  |  |  |  |  | 
COc1ccc(-c2c(C#N)c(-c3ccccc3)n(NS(=O)(=O)c3ccccc3)c(=O)c2C#N)cc1 | > 100 |  | > 100 |  | > 100 µM | 68.8 |  | > 100 |  |  |  |  |  |  |  | 
OC1OC(c2ccco2)C(F)(F)C(F)(F)C1(F)F (stereo not given) | > 100 | > 100 µM | > 100 |  | > 100 µM | > 100 | > 100 | > 100 |  |  |  |  |  |  |  | 
O=C(NCCNCCO)N/N=C/c1ccc(Cl)cc1 | > 100 | > 100 µM | > 100 | > 100 | > 100 µM |  | > 100 | > 100 |  |  |  |  |  |  |  | 
